Read-outs that look alike come from different tables or passages of the source.
Tests used:
5-HT2A = 5-HT2A (Homo sapiens, UniProt P28223); experiment: FLIPR Ca2+ flux agonist assay at 5-HT2A; format: cell-based; design: host or cells: HEK293; details: for 5-HT2A % Act @ Max Dose: HEK293, max dose
Method: (§1) A solution of 250 mM probenecid in 1 mL FLIPR assay buffer was prepared fresh. This was combined with a fluorescent dye (Fluo-4 Direct™) to make a final assay concentration of 2.5 mM. […] The fluorescent dye was then added to the assay plate along with assay buffer to a final volume of 40 μL. The cell plate was incubated for 50 min at 37° C. and 5% CO2 and placed into the FLIPR Tetra along with the compound plate. 10 μL of references and compounds were then transferred from the compound plate into the cell plate and the fluorescent signal was read.

[1] = tested on: monoamine oxidase A and B (MAO-A and MAO-B); experiment: Stability in the presence of monoamine oxidases (human liver mitochondria preparation); design: half-life / microsomal CLint: dose or concentration left out as unconfirmed; details: for Remaining (t = 60 min) / half-life / microsomal CLint: human liver mitochondria; for half-life / microsomal CLint: human, pH 7.4; for stability in the presence of MAO (in words): human liver mitochondria preparation
Method: Liver Mitochondria Incubations. Human liver mitochondria (Xenotech H0610.M) were used.

[2] = Metabolic stability in human liver microsomes (HLM); design: microsomal CLint / half-life: dose or concentration left out as unconfirmed; details: both, human, pooled human liver microsomes, pH 7.4
5-HT1A = molecular target: T1, 5-HT1A (Homo sapiens, UniProt P08908); experiment: FLIPR Ca2+ flux agonist assay at 5-HT1A; format: cell-based; details: for 5-HT1A % Act @ Max Dose: Ca2+ flux, CHO cells
T1 construct: host or cells: CHO cells
T1 sequence (P08908 1-422): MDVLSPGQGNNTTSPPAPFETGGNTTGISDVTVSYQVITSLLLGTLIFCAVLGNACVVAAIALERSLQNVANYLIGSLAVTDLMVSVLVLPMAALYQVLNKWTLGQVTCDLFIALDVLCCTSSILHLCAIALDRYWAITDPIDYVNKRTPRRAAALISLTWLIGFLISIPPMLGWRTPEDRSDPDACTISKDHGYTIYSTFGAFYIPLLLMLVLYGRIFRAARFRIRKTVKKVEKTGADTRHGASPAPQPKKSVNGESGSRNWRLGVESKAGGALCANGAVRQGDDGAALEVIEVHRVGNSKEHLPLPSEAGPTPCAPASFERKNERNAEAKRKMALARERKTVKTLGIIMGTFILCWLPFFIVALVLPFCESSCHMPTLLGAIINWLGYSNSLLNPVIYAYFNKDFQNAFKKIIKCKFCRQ
Method: as §1

[3] = Stability in mouse brain homogenate; format: in vitro ADME, male CD-1 mice; details: mouse brain homogenate, 1 μM, 37° C.; for half-life at 1 µM: male, CD-1
Method: Disclosed compounds were tested for stability in mouse brain homogenate (Table 7). There was widely variable stability among the test compounds under the conditions of the experiment.
(§2) Mouse Brain Homogenate Stability. Frozen mouse brain homogenate (pooled from male CD-1 mice, BioreclamationIVT, MSE00BRAINMZA) was thawed in a water bath at 37° C. immediately prior to use. Positive controls and test compounds (final concentration in incubation medium=1 μM for test compounds and 2 μM for controls, all with 2% DMSO) were incubated in duplicate for each time point (0, 10, 30, 60, and 120 min) in the mouse brain homogenate at a total reaction volume of 100 μL at 37° C. At the end of each incubation period, reactions were immediately quenched with 400 μL of acetonitrile containing internal standard (200 ng/mL tolbutamine and 200 ng/mL labetalol) and mixed thoroughly. Plates were then sealed, shaken for 20 min, and centrifuged at 4,000 rpm and 4° C. for 20 min. Aliquots of 50 μL of each supernatant were diluted into 100 μL of water and the mixtures were then shaken again for 10 min.

5-HT2B = molecular target: T2, 5-HT2B (Homo sapiens, UniProt P41595); experiment: FLIPR Ca2+ flux agonist assay at 5-HT2B; format: cell-based; details: for 5-HT2B % Act @ Max Dose: Ca2+ flux, HEK293, max dose
T2 construct: host or cells: HEK293
Method: as §1

[4] = Stability in rat brain homogenate; format: in vitro ADME, male Sprague Dawley rats; details: rat brain homogenate, 1 μM, 37° C.; for half-life at 1 µM: male, Sprague Dawley
Method: Disclosed compounds were tested for stability in rat brain homogenate (Table 8). There was widely variable stability among the test compounds under the conditions of the experiment.
as §2, with “Rat” for “Mouse”, “rat” for “mouse”, “Sprague Dawley rats,” for “CD-1 mice,”, “RAT00BRAINMZA)” for “MSE00BRAINMZA)”

[5] = human liver mitochondria 0.30 mg protein/mL, 37° C.

T2 sequence (P41595 whole entry, species assumed): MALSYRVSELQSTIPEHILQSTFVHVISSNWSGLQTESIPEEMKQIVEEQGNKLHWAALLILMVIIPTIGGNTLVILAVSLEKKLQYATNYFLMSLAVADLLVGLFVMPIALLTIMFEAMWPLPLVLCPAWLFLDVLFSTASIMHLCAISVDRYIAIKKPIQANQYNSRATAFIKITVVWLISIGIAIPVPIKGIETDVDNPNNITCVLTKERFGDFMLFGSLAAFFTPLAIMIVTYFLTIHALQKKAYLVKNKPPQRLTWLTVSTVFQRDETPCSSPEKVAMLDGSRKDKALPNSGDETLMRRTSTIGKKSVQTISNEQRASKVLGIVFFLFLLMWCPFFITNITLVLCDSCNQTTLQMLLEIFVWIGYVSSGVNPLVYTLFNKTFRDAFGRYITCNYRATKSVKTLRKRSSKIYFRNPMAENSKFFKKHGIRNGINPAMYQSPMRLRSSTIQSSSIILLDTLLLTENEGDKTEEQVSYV
5-HT2A, sequence (P28223 whole entry): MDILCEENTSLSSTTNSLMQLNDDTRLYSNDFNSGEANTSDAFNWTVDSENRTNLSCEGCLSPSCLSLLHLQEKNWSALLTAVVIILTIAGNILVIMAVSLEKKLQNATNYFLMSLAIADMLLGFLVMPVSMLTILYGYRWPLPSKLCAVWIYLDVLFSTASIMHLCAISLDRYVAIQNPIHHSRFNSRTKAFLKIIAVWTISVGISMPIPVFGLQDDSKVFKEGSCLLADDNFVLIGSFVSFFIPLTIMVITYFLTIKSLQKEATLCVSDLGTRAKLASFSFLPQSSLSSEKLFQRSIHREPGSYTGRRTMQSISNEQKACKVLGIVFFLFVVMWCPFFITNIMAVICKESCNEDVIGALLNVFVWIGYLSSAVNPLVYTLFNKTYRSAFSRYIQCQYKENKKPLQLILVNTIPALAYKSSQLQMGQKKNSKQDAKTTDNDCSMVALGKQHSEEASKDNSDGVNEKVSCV

SMILES | EC50 (5-HT2A) [µM] | 5-HT2A % Act @ Max Dose (5-HT2A; Ca2+ flux) [%] | Remaining (t = 60 min) [1] [%] | half-life [1] [h] | microsomal CLint [1] [µL/min/mg] | half-life [2] [h] | microsomal CLint [2] [µL/min/mg] | EC50 (5-HT1A) [µM] | 5-HT1A % Act @ Max Dose (5-HT1A) [%] | half-life at 1 µM [3] [h] | % Compound Remaining (after 120 min) [3] [%] | EC50 (5-HT2B) [µM] | 5-HT2B % Act @ Max Dose (5-HT2B) [%] | half-life at 1 µM [4] [h] | % Compound Remaining (after 120 min) [4] [%] | other results
NCCc1c[nH]c2cccc(O)c12 [Compound 1, 3-(2-aminoethyl)-1H-indol-4-ol] | 0.0334 | 99.2 | 51.1 | 1.18 | 32.8 | 0.572 | 40.4 | 92.6 | 49.9 | 0.21 | 0.0 | 0.151 | 83.98 | 0.167 | 0.0 | –
COc1ccc2[nH]cc(CCN(C)C)c2c1 [Compound 5-MeO-DMT, reference compound] | – | – | 47.1 | – | – | – | – | – | 78.8 | – | 91.2 | – | 20.5 | – | 0.3 | CLint(MAO) [1, 5]: 43.6 µL/min/mg; t1/2 [1, 5]: 0.882 h; stability in the presence of MAO (in words) [1]: rapidly metabolized by MAO; t1/2 [3]: >4.818 h; t1/2 [4]: 0.24 h
Oc1cccc2[nH]cc(CCNCCF)c12 [Compound 7, 3-(2-((2-fluoroethyl)amino)ethyl)-1H-indol-4-ol] | 0.0472 | 86.8 | 85.2 | > 2.42 | < 15.9 | 1.28 | 18 | > 100 | 42.13 | 2.95 | 61.8 | 0.375 | 20.76 | > 4.82 | 77.1 | –
C=CCNCCc1c[nH]c2cccc(O)c12 [Compound 23, 3-(2-(allylamino)ethyl)-1H-indol-4-ol] | – | – | 83.5 | > 2.42 | – | 1.96 | 11.8 | – | – | 2.11 | 49.6 | – | – | 2.1 | 52.4 | –
C#CCNCCc1c[nH]c2cccc(O)c12 [Compound 24, 3-(2-(prop-2-yn-1-ylamino)ethyl)-1H-indol-4-ol] | 0.0201 | 96.07 | 87.2 | > 2.42 | < 15.9 | 1.54 | 15 | > 100 | −3.14 | 1.62 | 40.5 | 0.0883 | 48.26 | 1.54 | 41.9 | –
CNCCc1c[nH]c2ccc(F)c(O)c12 [Compound 26, 5-fluoro-3-(2-(methylamino)ethyl)-1H-indol-4-ol] | 0.021 | 86.9 | 0.1 | 0.105 | 369 | 0.015 | 1520 | 3.49 | 74.21 | 0.0283 | 0 | – | 13.87 | 0.0367 | 0 | –
Oc1c(F)ccc2[nH]cc(CCNC3CC3)c12 [Compound 27, 3-(2-(cyclopropylamino)ethyl)-5-fluoro-1H-indol-4-ol] | – | – | 32.1 | 0.603 | 63.9 | 0.33 | 70 | 1.23 | 84.02 | 1.16 | 29.4 | 0.00953 | 36.08 | 0.252 | 0.4 | EC50 (5-HT2A; Ca2+ flux, HEK293, read-out: 5-HT2A EC50): 0.00737 µM; stability in the presence of MAO (in words) [1]: intermediate stability
